Experimental data as given in patent EP3981864A1, “DETERGENT COMPOSITION” (priority 2020, dated 2022).

How the values were obtained:
[1] = target: T1, Arabidopsis thaliana αDOX (SEQ ID NO: 3), fatty acid alpha-dioxygenase, Q9SGH6, variant with N-terminal His-tag, MBP tag and TEV site SEQ ID NO: 253 (Arabidopsis thaliana, UniProt Q9SGH6); assay: Alpha-dioxygenase activity assay (oxygen consumption, TON); type: biochemical; conditions: fatty acid 100 µM, enzyme 6 ppm, 50 mM HEPES pH 9.0, 37°C; initial rate of oxygen consumption / enzyme concentration
T1 construct: His-tag (N); MBP tag (N); TEV protease cleavage site (N); made in house; host or cells: Escherichia coli BL21 (DE3), modified pET28a
T1 sequence (Q9SGH6 1-639): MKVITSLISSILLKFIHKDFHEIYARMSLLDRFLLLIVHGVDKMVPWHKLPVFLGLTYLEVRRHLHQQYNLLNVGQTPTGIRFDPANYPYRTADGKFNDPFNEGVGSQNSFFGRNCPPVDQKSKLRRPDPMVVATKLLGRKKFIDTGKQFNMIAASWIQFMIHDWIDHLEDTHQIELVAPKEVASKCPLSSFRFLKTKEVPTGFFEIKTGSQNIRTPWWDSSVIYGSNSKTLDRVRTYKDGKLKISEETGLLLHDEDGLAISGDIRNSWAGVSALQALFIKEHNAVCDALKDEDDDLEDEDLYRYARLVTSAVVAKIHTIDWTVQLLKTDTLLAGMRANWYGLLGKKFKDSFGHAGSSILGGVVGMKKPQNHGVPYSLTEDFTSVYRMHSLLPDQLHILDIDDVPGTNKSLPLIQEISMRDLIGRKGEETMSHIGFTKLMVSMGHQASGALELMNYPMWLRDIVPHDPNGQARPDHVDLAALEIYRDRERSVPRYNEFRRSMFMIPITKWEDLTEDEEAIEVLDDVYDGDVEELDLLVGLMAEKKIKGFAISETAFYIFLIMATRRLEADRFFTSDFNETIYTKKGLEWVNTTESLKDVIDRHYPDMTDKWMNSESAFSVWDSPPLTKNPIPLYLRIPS
Description: Arabidopsis thaliana αDOX (SEQ ID NO: 3) is a fatty acid alpha-dioxygenase that converts fatty acids into the corresponding 2-hydroperoxy fatty acids and is included as an example of the present invention. A codon optimized gene (SEQ ID NO: 252) encoding for an alpha-dioxygenase variant was designed and synthesized by Genscript. After synthesis, the gene was cloned into a modified version of pET28a, such as the final plasmid encoded for a αDOX variant including an N-terminal amino acid sequence containing a His-tag, an MBP tag, and a TEV protease cleavage site (SEQ ID NO: 253). For heterologous expression, Escherichia coli BL21 (DE3) cells were transformed with the recombinant plasmid and a single colony was inoculated into LB medium containing kanamycin (50 mg/L). A pre-starter culture was then inoculated into flasks containing TB Media supplemented with kanamycin (50 mg/L) and incubated at 37 °C. At an OD600nm about 4, IPTG (final concentration 0.1 mM) and 5-aminolevulinic acid (final concentration 0.5 mM) were added to the culture and further incubated at 16 °C for 16 h. Cells were harvested by centrifugation and the pellet was lysed. After centrifugation, the supernatant was collected, and the protein was purified by one-step purification using Ni-NTA affinity chromatography and standard protocols known in the art. The protein was stored in 1×PBS buffer containing 10% Glycerol and at pH 7.4. The purified enzyme was stored at -80 °C until use.
Reactions with alpha-dioxygenases were performed as follows. An aliquot of fatty acid in ethanol (final concentration 100 µM) was resuspended in buffer (50 mM HEPES at pH 9.0) in a scintillation vial. The reaction was started by addition of enzyme (final concentration 6 ppm). The reaction was incubated for up to 10 minutes at 37°C with 200 rpm agitation and the conversion was monitored using an oxygen sensor. The TON (in s-1) were calculated as the ratio between the initial rate of oxygen consumption (in µM/s) and the concentration of enzyme (in µM). […]

[2] = system: Mycolicibacterium fortuitum αDOX (SEQ ID NO: 7), fatty acid alpha-dioxygenase, K0VMX8, N-terminal His-tag variant SEQ ID NO: 261; assay: as above; type: biochemical; conditions: fatty acid 100 µM, enzyme 6 ppm, 50 mM HEPES pH 9.0, 37°C; initial rate of oxygen consumption / enzyme concentration
Description: Mycolicibacterium fortuitum αDOX (SEQ ID NO: 7) is a fatty acid alpha-dioxygenase that converts fatty acids into the corresponding 2-hydroperoxy fatty acids and is included as an example of the present invention. A codon optimized gene (SEQ ID NO: 260) encoding for an alpha-dioxygenase variant (SEQ ID NO: 261), including an N-terminal amino acid sequence containing a His-tag was designed and synthesized by Genscript. After gene synthesis, the protein was expressed and purified. In brief, the complete synthetic gene sequence was subcloned into a pET30a vector using the NdeI/HindIII cloning sites. For heterologous expression, Escherichia coli BL21 (DE3) cells were transformed with the recombinant plasmid and a single colony was inoculated into LB medium containing kanamycin (50 mg/L). A pre-starter culture was then inoculated into flasks containing Magic Media (Thermo Fisher, Catalog # K6803) supplemented with kanamycin (50 mg/L) and incubated at 16 °C for 72 h. At an OD600nm = 0.5 - 1.0, 5-aminolevulinic acid (final concentration 0.5 mM) was added. Cells were harvested by centrifugation at 5000 rpm and 4°C and the pellet was lysed using a bacterial cell lysis buffer (B-PER - Themo Fisher, Waltham, MA). After centrifugation, the supernatant was collected, and the protein was purified by one-step purification using HisPur™ Ni-NTA Spin Columns (Thermo Scientific, Catalog # 88226) and standard protocols known in the art. The protein was concentrated using a 10 kDa MW cutoff Amicon Ultra centrifugal filter unit (Millipore Sigma, Catalog# UFC901024), followed by desalting using a disposable PD-10 […], 500 mM NaCl, and 10% Glycerol at pH 8.0. The purified enzyme was stored at -80 °C until use.
Reactions with alpha-dioxygenases were performed as follows. […] The reaction was incubated for up to 10 minutes at 37°C with 200 rpm agitation and the conversion was monitored using an oxygen sensor. The TON (in s-1) were calculated as the ratio between the initial rate of oxygen consumption (in µM/s) and the concentration of enzyme (in µM). […]

CCCCCCCC/C=C\CCCCCCCC(=O)O [Oleic Acid]
Oleic Acid, TON [1]: 0.14 s⁻¹
Oleic Acid, TON [2]: 0.00 s⁻¹

CCCCCCCCCCCCCCCC(=O)O [Palmitic Acid]
Palmitic Acid, TON [1]: 1.01 s⁻¹
Palmitic Acid, TON [2]: 0.00 s⁻¹

CCCCCCCCCCCCCCCCCC(=O)O [Stearic Acid]
Stearic Acid, TON [1]: 0.47 s⁻¹
Stearic Acid, TON [2]: 1.66 s⁻¹
